Legend:
[1] = test system: G138/139A mutant hTERT 5-12 fragment; experiment: Single-molecule laser tweezer unfolding, G138/139A mutant; type: biochemical, human; settings: 2 μM
Procedure: Single-molecule tweezer. Preparation of the DNA construct. The DNA construct that contains the single-stranded hTERT 5-12 fragment was prepared by sandwiching the target sequence between two double-stranded DNA handles. Five deoxythymidines were added at both ends of the hTERT 5-12 fragment to reduce the interference from the double-stranded DNA handles on the target sequence. Briefly, the 2690-base-pair double-stranded DNA handle was prepared through restriction enzyme digestion of the pEGFP vector (Clontech, Mountain View, Calif.). In the first step, the vector was digested by Sad and Eagl restriction enzymes, followed by purification with agarose gel. The EagI end of the DNA fragment was labeled with digoxigenin using terminal deoxynucleotidyl transferase. […]
Single-molecule force-ramp assay. […] After this, the two beads were moved apart to increase the tension on the DNA tether with a loading rate of 5.5 pN/s, and the force-extension (F-X) curves were recorded using the LabVIEW program (National Instruments Corp., Austin, Tex.).
The F-X curves were filtered by Savitzky-Golay function with a 10 ms time constant in the MATLAB program (The Math Works, Natick, Mass.). […] The change-in-contour length (ΔL) was calculated based on the Δx through the worm-like chain model (equation 1). […]

[2] = test system: hTERT core promoter (pGL3-WT); experiment: Luciferase assay, pGL3-WT in MCF7 cells; type: cell-based, human; settings: 24 h
Procedure: (§1) Luciferase assay. From gDNA extracted from HeLa cells, the hTERT core promoter region, including −350 bp to +12 from the transcription start site, was amplified using a pair of primers, including KpnI and NheI restriction sites, for cloning of pGL3-hTERT with WT promoter sequence. Mutant constructs were generated by PCR-based site-directed mutagenesis. The sequence of each construct was confirmed by sequencing analysis. MCF7 cells in 24-well plate were transfected with 200 ng of pGL3 construct and 5 ng of pRL-TK by Fugene® HD Transfection Reagent and then incubated for 6 h. Media were replaced by fresh ones and the cells were treated with GTC365 or BRACO-19. The same volume of DMSO served as a control. […]
(§2) Since MYC is a key transcription factor for activation of the hTERT gene by binding to an E-box in the hTERT promoter region and is one of the oncogenes having a G-quadruplex structure in the promoter region, it was important to confirm that GTC365 affects the repression of hTERT promoter activity directly by binding to the G-quadruplex structure formed in the hTERT promoter and not by binding to the G-quadruplex in the MYC promoter. To distinguish between these possibilities, the luciferase activity of the pGL3-WT and pGL3-E-box mutant constructs were determined after treatment with GTC365. […]

[3] = test system: hTERT core promoter E-box Mut construct; experiment: Luciferase assay, pGL3-E-box mutant in MCF7 cells; type: cell-based, human; settings: 24 h
Procedure: as §1, §2

[4] = test system: telomere length in MCF7 cells; experiment: Telomere length assay (qPCR) in MCF7 cells; type: cell-based, human; settings: 0.5 μM
Procedure: Telomere length assay. MCF7 cells were treated with DMSO, GTC365 for 5-10 days, or BRACO-19 for 25-30 days. Meanwhile, cells were subcultured to maintain <90% confluent. Cells were collected by cell scraper and then subjected to gDNA extraction by DNA extraction kit (Qiagen). Ten ng of gDNA was used for SYBR Green I-based qPCR assay with 1 M betaine, 700 nM telomere primers, and 200 nM 36B4 single-copy gene. A pair of Tel1 and Tel2 was used for amplification of the telomere region and a pair of 36B4F and 36B4R for amplification of a single-copy gene to normalize data. The PCR was initiated at 95° C. for 3 min and then 27 cycles at 95° C. for 3 sec and 60° C. for 2 min. The fluorescence signal at 60° C. was acquired. Triplicate data was averaged and normalized to 36B4 to obtain ΔCt. The relative telomere length was determined compared to the DMSO.
hTERT-positive MCF7 breast cancer cell lines were used to gain mechanistic insight into how the GTC365-induced inhibition of proliferation occurs. Change in relative telomere length by GTC365 was measured by qPCR with gDNA extracted from GTC365-treated MCF7 cells. After 10 days of treatment GTC365 decreased telomere length in a dose-dependent manner, and at a dose of 0.5 μM, the telomere length was reduced by 20%. In contrast, BRACO-19 reduced telomere length by ˜12% at the same concentration but required 25-30 days of treatment (FIG. 9).

Question: CN(C)c1ccc(Nc2c3ccc(NC(=O)CCN4CCCC4)cc3nc3cc(NC(=O)CCN4CCCC4)ccc23)cc1 [BRACO-19, reference compound] was tested. Which “population of fully folded structures” value [1] did it give?
Answer: minimallypromoted the fully folded structure

Question: And the luciferase activity [2]?
Answer: decreased

Question: What about the luciferase activity [3] of the same compound?
Answer: failed to reduce

Question: And the “reduction of telomere length” value ([4]; 25-30 days)?
Answer: ~12%

Question: Which “population of fully folded structures” value [1] does the source give for N=C(N)NCCCS(=O)(=O)Nc1ccc(Nc2c3ccccc3nc3cc([N+](=O)[O-])ccc23)cc1 [GTC365] here?
Answer: significantly recovered

Question: What about the luciferase activity [2] of the same compound?
Answer: dose-dependent decrease

Question: And the luciferase activity [3]?
Answer: dose-dependent decrease

Question: And the “reduction of telomere length” value ([4]; 10 days)?
Answer: 20%

Source: patent US10556860B2, “hTERT modulators and methods of use” (Arizona Board of Regents on Behalf of the University of …, priority 2015, dated 2020)
